Results reported in EPA's ToxRefDB 2.

Tests used:
rat [1] = details: Carcinogenicity, fischer, Oral, Gavage/Intubation, dose end: 103 week, group: systemic
rat [2] = details: Subchronic oral toxicity in rodents, fischer, Gavage/Intubation, dose end: 13 week, group: systemic
mouse [3] = details: Subchronic oral toxicity in rodents, b6c3f1, Gavage/Intubation, dose end: 13 week, group: systemic, systemic / pathology microscopic / stomach / cytoplasmic alteration + systemic / pathology microscopic / stomach / hyperkeratosis + systemic…
mouse [4] = details: Carcinogenicity; b6c3f1; Oral; Gavage/Intubation; dose end: 104 week; group: systemic; systemic / in life observation / body weight / body weight + systemic / pathology microscopic / stomach / cyst + systemic / pathology …
rat [5] = details: Combined chronic toxicity/carcinogenicity, sprague dawley, Oral, Feed, dose end: 24 month, group: systemic
rat [6] = details: Subchronic oral toxicity in rodents, Diet, dose end: 90 day
rat [7] = details: Chronic toxicity, Oral, Feed, dose end: 26 month, group: systemic
dog [8] = details: Subchronic oral toxicity in nonrodent, beagle, Capsule, dose end: 6 month
dog [9] = details: Chronic toxicity; beagle; Oral; Feed; dose end: 12 month; group: cholinesterase; cholinesterase / cholinesterase / cholinesterase / erythrocyte cholinesterase (che) + cholinesterase / cholinesterase / cholinesterase / …
rat [10] = details: Combined chronic toxicity/carcinogenicity, wistar, Oral, Feed, dose end: 26 month
rat [11] = details: Developmental neurotoxicity study; long evans; Injection; Subcutaneous; dose end: 30 PND; group: cannot be grouped; cholinesterase / cholinesterase / cholinesterase / cholinesterase (che) + systemic / in life observation / body weight / offspring (pup) …
[12] = systemic / in life observation / clinical signs / defecation (diarrhea) + systemic / in life observation / clinical signs / urination
[13] = systemic / in life observation / clinical signs / defecation (diarrhea) + systemic / in life observation / clinical signs / urination + …
[14] = systemic / in life observation / body weight / body weight + systemic / in life observation / clinical signs / defecation (diarrhea) + …
[15] = systemic / pathology microscopic / nerve / [other] + systemic / pathology microscopic / nerve / proliferation
[16] = group: cholinesterase, cholinesterase / cholinesterase / cholinesterase / erythrocyte cholinesterase (che) + cholinesterase / cholinesterase / cholinesterase / …
[17] = group: systemic, systemic / in life observation / body weight / body weight gain + systemic / in life observation / mortality / mortality
[18] = systemic / pathology microscopic / eye / [other]
[19] = systemic / pathology microscopic / eye / [other] + systemic / pathology microscopic / eye / atrophy + systemic / pathology microscopic / eye…
[20] = group: cholinesterase, cholinesterase / cholinesterase / cholinesterase / plasma cholinesterase (che)
[21] = group: systemic, systemic / clinical chemistry / [other] / [other]
[22] = group: systemic, systemic / in life observation / body weight / body weight + systemic / in life observation / clinical signs / [other] + systemic / in life …

How did the LEL (rat [1]; [12]) turn out when CC1(C)S[C@@H]2[C@H](NC(=O)COc3ccccc3)C(=O)N2[C@H]1C(=O)[O-].[K+] [Penicillin VK] was run?
Its LEL is 500 mg/kg/day.

And the NEL (rat [1]; [12])?
The NEL was < 500 mg/kg/day.

What about the LOAEL (rat [1]; [13]) of the same molecule?
Its LOAEL is > 1000 mg/kg/day.

What about the NOAEL (rat [1]; [13]) of the same molecule?
The NOAEL was ≥ 1000 mg/kg/day.

What about the LOAEL (rat [2]; [14]) of the same molecule?
The LOAEL was > 3000 mg/kg/day.

What about the NEL (rat [2]; [14]) of the same molecule?
The NEL was 370 mg/kg/day.

What about the NOAEL (rat [2]; [14]) of the same molecule?
Its NOAEL is ≥ 3000 mg/kg/day.

And the LEL (rat [2]; systemic / in life observation / clinical signs / defecation (diarrhea))?
The LEL was 750 mg/kg/day.

What about the LEL (mouse [3]) of the same molecule?
The LEL was 100 mg/kg/day.

And the LOAEL (mouse [3])?
The LOAEL was > 3000 mg/kg/day.

What about the NEL (mouse [3]) of the same molecule?
The NEL was < 100 mg/kg/day.

And the NOAEL (mouse [3])?
Its NOAEL is ≥ 3000 mg/kg/day.

What about the LEL (mouse [4]) of the same molecule?
The LEL was 500 mg/kg/day.

And the LOAEL (mouse [4])?
Its LOAEL is > 1000 mg/kg/day.

And the NEL (mouse [4])?
Its NEL is < 500 mg/kg/day.

What about the NOAEL (mouse [4]) of the same molecule?
The NOAEL was ≥ 1000 mg/kg/day.

Which results are given for CCOP(=S)(OCC)Oc1ccc([N+](=O)[O-])cc1 [Parathion]?
NEL (rat [5]; systemic / in life observation / clinical signs / abnormal gait): 0.25 mg/kg/day; LOAEL (rat [5]; [15]): 2.5 mg/kg/day; NOAEL (rat [5]; [15]): 0.25 mg/kg/day; LEL (rat [5]; systemic / pathology microscopic / nerve / [other] + systemic / pathology microscopic / nerve / proliferation + systemic / in life …): 2.5 mg/kg/day; LEL (rat [6]; [16]): 0.4 mg/kg/day; LOAEL (rat [6]; [16]): 4 mg/kg/day; NEL (rat [6]; [16]): 0.04 mg/kg/day; NOAEL (rat [6]; [16]): 0.4 mg/kg/day; LEL (rat [6]; [17]): 4 mg/kg/day; LOAEL (rat [6]; [17]): 4 mg/kg/day; NEL (rat [6]; [17]): 0.4 mg/kg/day; NOAEL (rat [6]; [17]): 0.4 mg/kg/day; NEL (rat [7]; [18]): 0.4 mg/kg/day; NOAEL (rat [7]; [18]): 0.4 mg/kg/day; LEL (rat [7]; [19]): 1.6 mg/kg/day; LOAEL (rat [7]; [19]): 1.6 mg/kg/day; LEL (dog [8]; [20]): 0.0024 mg/kg/day; LOAEL (dog [8]; [20]): 0.0079 mg/kg/day; NEL (dog [8]; [20]): < 0.0024 mg/kg/day; NOAEL (dog [8]; group: cholinesterase, cholinesterase / cholinesterase / cholinesterase / plasma cholinesterase (che) + cholinesterase / cholinesterase / cholinesterase / brain (…): 0.0024 mg/kg/day; LEL (dog [8]; [21]): 0.794 mg/kg/day; LOAEL (dog [8]; [21]): > 0.794 mg/kg/day; NEL (dog [8]; [21]): 0.0079 mg/kg/day; NOAEL (dog [8]; [21]): ≥ 0.794 mg/kg/day; LEL (dog [9]): 0.01 mg/kg/day; LOAEL (dog [9]): 0.01 mg/kg/day; NEL (dog [9]): < 0.01 mg/kg/day; NOAEL (dog [9]): < 0.01 mg/kg/day; LEL (rat [10]; [16]): 0.42 mg/kg/day; LOAEL (rat [10]; [16]): 0.42 mg/kg/day; NEL (rat [10]; [16]): 0.1 mg/kg/day; NOAEL (rat [10]; [16]): 0.1 mg/kg/day; LOAEL (rat [10]; [22]): > 1.75 mg/kg/day; NOAEL (rat [10]; [22]): ≥ 1.75 mg/kg/day; LEL (rat [10]; group: systemic, systemic / pathology microscopic / eye / [other]): 0.53 mg/kg/day; NEL (rat [10]; group: systemic, systemic / pathology microscopic / eye / [other] + systemic / clinical chemistry / aspartate aminotransferase (ast/sgot) / aspartate …): 0.14 mg/kg/day; LEL (rat [11]): 1.3 mg/kg/day; LOAEL (rat [11]): > 1.9 mg/kg/day; NEL (rat [11]): < 1.3 mg/kg/day; NOAEL (rat [11]): ≥ 1.9 mg/kg/day
